Laboratory results taken from ChEMBL document CHEMBL4613317, “Substituted Naphthalenediimide Compounds Bind Selectively to Two Human Quadruplex Structures with Parallel Topology” (ACS Med Chem Lett, 2020).
Calls of active or inactive are those of the source. The calls are words filed in the database; no cut-off is given here.

How the values were obtained:
Quadruplex DNA [1] = assay: Induction of (3+1) hybrid structural changes of human HTR G4-quadruplex DNA to antiparallel structure at 20 uM by circular dichroism analysis; type: nucleic-acid assay
Quadruplex DNA [2] = assay: Induction of parallel human TERT G4-quadruplex DNA structural changes up to 20 uM by circular dichroism analysis; type: nucleic-acid assay
Quadruplex DNA [3] = assay: Binding affinity to human HTR G4-quadruplex DNA assessed as change in melting temperature by UV-visible spectrophotometry; type: nucleic-acid assay
DNA [4] = assay: Binding affinity to human TERT hairpin duplex DNA assessed as change in melting temperature by UV-visible spectrophotometry; type: nucleic-acid assay
Quadruplex DNA [5] = assay: Binding affinity to biotin-labeled human TERT G4-quadruplex DNA assessed as dissociation equilibrium binding constant by SPR analysis; type: nucleic-acid assay
Quadruplex DNA [6] = assay: Binding affinity to biotin-labeled human HTR G4-quadruplex DNA assessed as dissociation equilibrium binding constant by SPR analysis; type: nucleic-acid assay
Quadruplex DNA [7] = assay: Binding affinity to biotin-labeled human TERRA G4-quadruplex RNA assessed as dissociation equilibrium binding constant by SPR analysis; type: nucleic-acid assay
Quadruplex DNA [8] = assay: Binding affinity to human TERT G4-quadruplex DNA assessed as dissociation equilibrium binding constant by intrinsic fluorescence titration based fluorescence spectrophotometry; type: nucleic-acid assay
Quadruplex DNA [9] = assay: Binding affinity to human HTR G4-quadruplex DNA assessed as dissociation equilibrium binding constant by intrinsic fluorescence titration based fluorescence spectrophotometry; type: nucleic-acid assay
Quadruplex DNA [10] = assay: Binding affinity to human TERRA G4-quadruplex RNA assessed as dissociation equilibrium binding constant by fluorescence anisotropy titration based fluorescence spectrophotometry; type: nucleic-acid assay
Quadruplex DNA [11] = assay: Binding affinity to G-quartet terminal of human TERT G4-quadruplex DNA with parallel topology up to 20 uM by circular dichroism analysis; type: nucleic-acid assay
Quadruplex DNA [12] = assay: Binding affinity to end quartet of (3+1) hybrid structure of human HTR G4-quadruplex DNA up to 20 uM by circular dichroism analysis; type: nucleic-acid assay
Quadruplex DNA [13] = assay: Binding affinity to G-quartet terminal of human TERRA G4-quadruplex RNA with parallel topology up to 20 uM by circular dichroism analysis; type: nucleic-acid assay
Quadruplex DNA [14] = assay: Induction of parallel human TERRA G4-quadruplex RNA structural changes up to 20 uM by circular dichroism analysis; type: nucleic-acid assay
Quadruplex DNA [15] = assay: Binding affinity to human TERT G4-quadruplex DNA assessed as change in melting temperature by UV-visible spectrophotometry; type: nucleic-acid assay
DNA [16] = assay: Binding affinity to biotin-labeled duplex DNA AAAGAACTTT (unknown origin) assessed as dissociation equilibrium binding constant by SPR analysis; type: nucleic-acid assay
Homo sapiens [17] = organism: Homo sapiens; assay: Selectivity index, ratio of Kd for human HTR G4-quadruplex DNA to Kd for human TERT G4-quadruplex DNA by intrinsic fluorescence titration based fluorescence spectrophotometry
Homo sapiens [18] = organism: Homo sapiens; assay: Selectivity index, ratio of Kd for biotin-labeled human HTR G4-quadruplex DNA to Kd for biotin-labeled human TERRA G4-quadruplex RNA by SPR analysis
Homo sapiens [19] = organism: Homo sapiens; assay: Selectivity index, ratio of Kd for human HTR G4-quadruplex DNA to Kd for human TERRA G4-quadruplex RNA by fluorescence spectrophotometry
Homo sapiens [20] = organism: Homo sapiens; assay: Selectivity index, ratio of Kd for biotin-labeled human HTR G4-quadruplex DNA to Kd for biotin-labeled human TERT G4-quadruplex DNA by SPR analysis

Activity (Quadruplex DNA [1]) | Activity (Quadruplex DNA [2]) | ΔTm (Quadruplex DNA [3]) [°C] | ΔTm (DNA [4]) [°C] | Kd (Quadruplex DNA [5]) [nM] | Kd (Quadruplex DNA [6]) [nM] | Kd (Quadruplex DNA [7]) [nM] | Kd (Quadruplex DNA [8]) [nM] | Kd (Quadruplex DNA [9]) [nM] | Kd (Quadruplex DNA [10]) [nM] | Activity (Quadruplex DNA [11]) | Activity (Quadruplex DNA [12]) | Activity (Quadruplex DNA [13]) | Activity (Quadruplex DNA [14]) | ΔTm (Quadruplex DNA [15]) [°C] | Kd (DNA [16]) [nM] | Selectivity Index (Homo sapiens [17]) | Selectivity Index (Homo sapiens [18]) | Selectivity Index (Homo sapiens [19]) | Selectivity Index (Homo sapiens [20]) | Structure (SMILES)
Active | inactive | 11 | < 2 | 2 | 5 | 3 | 4 | 10 | 2 | Active | Active | Active | inactive |  |  |  |  |  |  | CN1CCN(CCCNc2cc3c4c(c(NCCCN5CCN(C)CC5)cc5c4c2C(=O)N(CCCN2CCOCC2)C5=O)C(=O)N(CCCN2CCOCC2)C3=O)CC1
Active | inactive | 10 | 2 | 4 | 28 | 3 | 4 | 29 | 2 | Active | Active | Active | inactive | 18 | > 100 | 5 | 5 | 5 |  | O=C1c2cc(-c3ccc(CN4CCCC4)cc3)c3c4c(cc(NCCN5CCCC5)c(c24)C(=O)N1CCCN1CCOCC1)C(=O)N(CCCN1CCOCC1)C3=O [QN-302]
Active | inactive | 5 | 2 | 12 | 82 | 4 | 16 | 94 | 3 | Active | Active | Active | inactive | 13 | > 100 |  | 5 | 5 | 7 | O=C1c2ccc3c4c(c(NCCN5CCCC5)cc(c24)C(=O)N1CCCN1CCOCC1)C(=O)N(CCCN1CCOCC1)C3=O
